From ChEMBL document CHEMBL1142376, “Novel CADD-based peptidyl vinyl ester derivatives as potential proteasome inhibitors” (Bioorg Med Chem Lett, 2008) come the findings set out here.

A value given as a limit tells only on which side of the number the result lay.

Experiment [1] concerns HL-60. The experiment can be described thus: Antiproliferative activity against human HL60 cells at 10 umole. Type of experiment: functional.
Experiment [2] in a line: Inhibition of trypsin-like activity of 20S proteasome.
Experiment [3] in a line: Inhibition of post acidic-like activity of 20S proteasome.
The subject of experiment [4] is Bel-7402. The experiment can be described thus: Antiproliferative activity against human Bel7402 cells at 10 umole. Type of experiment: functional.
The test system of experiment [5] is BGC-823. The experiment can be described thus: Antiproliferative activity against human BGC823 cells at 10 umole. Type of experiment: functional.
Experiment [6] in a line: Inhibition of chymotrypsin-like activity of 20S proteasome.
Experiment [7] deals with KB. The experiment can be described thus: Antiproliferative activity against human KB cells at 10 umole. Type of experiment: functional.

Regarding `CC(C)(C)OC(=O)N[C@@H](CO)C(=O)N[C@H](/C=C/C(=O)O)Cc1ccc(O)cc1`, the Activity in experiment [1] was 19.26%; in experiment [4], -5.91%; in experiment [5] it was 22.56%; in experiment [7], -15.49%. Also, the IC50 in experiment [2], in experiment [3] and in experiment [6] was > 100 µmol each time.

Regarding `CCOC(=O)/C=C/[C@H](Cc1ccc(O)cc1)NC(=O)[C@H](Cc1ccccc1)NC(=O)OC(C)(C)C`, the Activity is reported as 23.66% in experiment [1], 12.68% in experiment [4], 33.88% in experiment [5] and -0.7% in experiment [7]. Moreover, the IC50 in experiment [2], in experiment [3] and in experiment [6] was > 100 µmol each time.

Regarding `CCOC(=O)/C=C/[C@H](Cc1ccccc1)NC(=O)[C@H](CO)NC(=O)[C@@H](NC(=O)OC(C)(C)C)C(C)C`, the Activity in experiment [1] is recorded as 0.36%; in experiment [4], -11.09%; in experiment [5] it was 0.04%; in experiment [7] it was -6.79%. For the same compound, the IC50 in experiment [2], in experiment [3] and in experiment [6] was > 100 µmol each time.

Consider `CCOC(=O)/C=C/[C@H](Cc1ccc(O)cc1)NC(=O)[C@H](CO)NC(=O)[C@@H](NC(=O)OC(C)(C)C)C(C)C`, for which the Activity in experiment [1] is on record as 26.73%; in experiment [4] it was 3.39%; in experiment [5] it was 22.59%; in experiment [7], 7.44%. Moreover, the IC50 in experiment [2], in experiment [3] and in experiment [6] was > 100 µmol each time.

In the case of `CCOC(=O)/C=C/[C@H](Cc1ccccc1)NC(=O)[C@@H](NC(=O)OC(C)(C)C)C(C)C`, the Activity in experiment [1] is listed as 27.13%; in experiment [4], -3.57%; in experiment [5], 21.27%; in experiment [7], -1.97%. Further, the IC50 in experiment [2], in experiment [3] and in experiment [6] was > 100 µmol each time.

With `CCOC(=O)/C=C/[C@H](Cc1ccccc1)NC(=O)[C@H](CO)NC(=O)[C@H](Cc1ccccc1)NC(=O)OC(C)(C)C`, the Activity in experiment [1] is recorded as 21.08%; in experiment [4], -8.04%; in experiment [5], 8.28%; in experiment [7], 5.23%. Also, the IC50 in experiment [2], in experiment [3] and in experiment [6] was > 100 µmol each time.

Turning to `CCOC(=O)/C=C/[C@H](C[C@@H]1CCNC1=O)NC(=O)[C@H](CO)NC(=O)[C@@H](NC(=O)OC(C)(C)C)C(C)C`, the Activity in experiment [1] is reported as -1.94%; in experiment [4], -4.98%; in experiment [5], 5.52%; in experiment [7], -3.45%. In addition, the IC50 in experiment [2], in experiment [3] and in experiment [6] was > 100 µmol throughout.

Regarding `CCOC(=O)/C=C/[C@H](C[C@@H]1CCNC1=O)NC(=O)[C@H](CC(C)C)NC(=O)[C@H](CO)NC(=O)[C@@H](NC(=O)OC(C)(C)C)C(C)C`, the Activity in experiment [1] was -47.14%; in experiment [4], -3.55%; in experiment [5], 20.55%; in experiment [7], 9.15%. Further, the IC50 in experiment [2], in experiment [3] and in experiment [6] was > 100 µmol throughout.
